From patent US11207312B2, “Metallo-beta-lactamase inhibitors and methods of use thereof” (priority 2017, dated 2021)

Key:
[1] = system: P. aeruginosa MB9798 (efflux+, IMP-1 plasmid); settings: for MB9798 MITC95 P. aeruginosa uM Efflux WT: efflux + (MB9798) strain, imipenem at 2 μg/mL, in the presence of a class A, C, D serine β-lactamase inhibitor closely related to relebactam; for Efflux ratio: fold difference between efflux+ (MB9798) and efflux− (MB9799) strains
Summary of the method: (§1)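 PAO1-derived isogenic pair (oprD+, inducible AmpC), efflux+ MB5919 or efflux− MB5890 parent, carrying an electroporated IMP-1 plasmid from a clinical isolate. Microbroth MIC with fixed imipenem and/or ceftazidime (usually CLSI breakpoint) plus fixed class A/C inhibitor; MBL inhibitor serially titrated, concentration restoring susceptibility recorded.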

[2] = target: IMP-1 (Serratia marcescens, UniProt P52699); assay: biochemical; settings: CCF2-FA fluorescence assay, 2 hours at 25° C.; read-out: IMP1 IC50
Summary of the method: (§2)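 Metallo-β-lactamase activity read by fluorescence against CCF2-FA (1.25 μM final) in 100 mM KH2PO4 pH 7 with 0.005% Tween-20 and 10 μM ZnSO4; enzyme final at 1 pM NDM-1, 2 pM IMP-1 or 30 pM VIM-1. Inhibitor at 20 to 0.00063 μM, 2 h at 25° C; IC50 by 4-parameter fit.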

[3] = target: VIM-1 (Pseudomonas aeruginosa (strain ATCC 15692 / DSM 22644 / CIP 104116 / JCM 14847 / LMG 12228 / 1C / PRS 101 / PAO1), UniProt A0A0F7KYQ8); assay: biochemical; settings: CCF2-FA fluorescence assay, 2 hours at 25° C.; read-out: VIM1 IC50
Summary of the method: as §2

[4] = system: P. aeruginosa MB9799 (efflux-, IMP-1 plasmid); assay type: cell-based, Pseudomonas aeruginosa; settings: efflux − (MB9799) strain; imipenem at 2 μg/mL; in the presence of a class A, C, D serine β-lactamase inhibitor closely related to relebactam
Summary of the method: as §1

[5] = target: NDM-1 (Klebsiella pneumoniae, UniProt C7C422); assay: biochemical; assay type: biochemical; settings: CCF2-FA fluorescence assay, 2 hours at 25° C.
Summary of the method: as §2

[6] = target: VIM-2 (Escherichia coli, UniProt Q5U7L7); assay: biochemical; settings: CCF2-FA fluorescence assay; read-out: VIM2 IC50
[7] = system: Klebsiella pneumoniae expressing VIM-1 (IHMA599644); assay type: cell-based; settings: with imipenem 1 μg/ml; 95% inhibition of bacterial growth
Summary of the method: (§3)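 Each strain, diluted 1:100 from saline suspension into 1.1× CAMHB, was combined with imipenem held at 1 μg/ml and graded inhibitor. Growth after 22–24 h at 35 °C was measured by absorbance, and the lowest concentration achieving 95% inhibition defined MITC95.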

[8] = system: Escherichia coli expressing NDM-1 (CLB30016); assay type: cell-based; settings: with imipenem 1 μg/ml; 95% inhibition of bacterial growth
Summary of the method: as §3

[9] = system: Serratia marcescens expressing IMP-1 (CL5741); assay type: cell-based; settings: with imipenem 1 μg/ml; 95% inhibition of bacterial growth
Summary of the method: as §3

NDM-1, sequence (C7C422 whole entry, looked up, species assumed): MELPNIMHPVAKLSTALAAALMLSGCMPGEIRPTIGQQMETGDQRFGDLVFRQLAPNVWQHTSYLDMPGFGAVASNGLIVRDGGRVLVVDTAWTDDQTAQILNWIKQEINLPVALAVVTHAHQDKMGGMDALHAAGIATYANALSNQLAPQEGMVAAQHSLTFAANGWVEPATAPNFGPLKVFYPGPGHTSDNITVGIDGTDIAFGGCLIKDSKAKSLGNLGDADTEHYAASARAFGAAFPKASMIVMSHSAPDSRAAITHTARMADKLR
IMP-1, sequence (P52699 whole entry, looked up, species assumed): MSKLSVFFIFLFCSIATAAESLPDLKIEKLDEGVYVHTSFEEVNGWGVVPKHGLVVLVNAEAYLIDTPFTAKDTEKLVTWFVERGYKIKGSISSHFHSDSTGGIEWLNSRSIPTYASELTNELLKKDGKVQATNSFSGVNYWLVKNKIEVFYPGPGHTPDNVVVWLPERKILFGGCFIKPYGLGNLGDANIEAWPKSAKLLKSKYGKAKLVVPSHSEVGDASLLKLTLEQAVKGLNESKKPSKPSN

Structure (SMILES) | MB9798 MITC95 P. aeruginosa uM Efflux WT [1] [µM] | Efflux ratio [1] | IC50 [2] [nM] | IC50 [3] [nM] | MB9799 MITC95 P. aeruginosa uM Efflux Mutant [4] [µM] | IC50 [5] [nM] | IC50 [6] [nM] | IHMA599644 K. pneumoniae MITC95 VIM [7] [µM] | CLB30016 E. coli MITC95 NDM [8] [µM] | CL5741 S. marcescens MITC95 IMP [9] [µM]
NC[C@@H](O)CNS(=O)(=O)c1ccc(N2CCC3(CC2)CNC(N)=N3)c(-c2nn[nH]n2)c1S(N)(=O)=O [Example 171, (R)—N1-(3-amino-2-hydroxypropyl)-4-(2-amino-1,3,8-triazaspiro [4.5]dec-1-en-8-yl)-3-(2H-tetrazol-5-yl)benzene-1,2-disulfonamide] | 0.78 | 2.00 | 7.39 | 0.92 | 0.39 | 3.38 | 27.8 | 0.78 | 0.39 | 0.78
NCC1C2CCC1CN(c1ccc(S(=O)(=O)NC[C@H](O)CN)c(S(N)(=O)=O)c1-c1nn[nH]n1)C2 (stereo partly drawn) [Example 172, N1-((R)-3-amino-2-hydroxypropyl)-4-((1R,5S,8R)-8-(aminomethyl)-3-azabicyclo[3.2.1]octan-3-yl)-3-(2H-tetrazol-5-yl)benzene-1,2-disulfonamide] | 1.17 | 1.00 | 3.49 | 0.66 | 1.17 | 2.15 | 3.78 | 2.34 | 1.17 | 2.34
CC1(C)CN(c2ccc(S(=O)(=O)NC[C@H](O)CN)c(S(N)(=O)=O)c2-c2nn[nH]n2)CCN1CCO [Example 173, (R)-N1-(3-amino-2-hydroxypropyl)-4-(4-(2-hydroxyethyl)-3,3-dimethylpiperazin-1-yl)-3-(2H-tetrazol-5-yl)benzene-1,2-disulfonamide] | 6.25 | 4.00 | 10.5 | 13.7 | 1.56 | 19.8 | 114 | 6.25 | 1.56 | 3.13
NC[C@@H](O)CNS(=O)(=O)c1ccc(N2CCC(n3ccnc3)CC2)c(-c2nnn[nH]2)c1S(N)(=O)=O [Example 174, (R)-4-(4-(1H-imidazol-1-yl)piperidin-1-yl)-N1-(3-amino-2-hydroxypropyl)-3-(2H-tetrazol-5-yl)benzene-1,2-disulfonamide] | 3.13 | 2.00 | 0.36 | 0.07 | 1.56 | 0.69 | 0.22 | 3.13 | 0.78 | 0.78
NCC1=CCN(c2ccc(S(=O)(=O)NC[C@H](O)CN)c(S(N)(=O)=O)c2-c2nn[nH]n2)CC1 [Example 175, (R)-N1-(3-amino-2-hydroxypropyl)-4-(4-(aminomethyl)-5,6-dihydropyridin-1(2H)-yl)-3-(2H-tetrazol-5-yl)benzene-1,2-disulfonamide] | 1.56 | 2.00 | 3.66 | 0.24 | 0.78 | 2.55 | 4.18 | 1.56 | 0.39 | 0.78
CC1CN(c2ccc(S(=O)(=O)NC[C@H](O)CN)c(S(N)(=O)=O)c2-c2nn[nH]n2)CCN1CCO.O=C(O)C(F)(F)F.O=C(O)C(F)(F)F (stereo partly drawn) [Example 176, N1-((R)-3-amino-2-hydroxypropyl)-4-(4-(2-hydroxyethyl)-3-methylpiperazin-1-yl)-3-(2H-tetrazol-5-yl)benzene-1,2-disulfonamide bis(2,2,2-trifluoroacetate) salt] | 3.13 | 2.00 | 5.1 | 2.76 | 1.56 | 2.51 | 11.7 | 1.56 | 0.39 | 0.39
NC[C@@H](O)CNS(=O)(=O)c1ccc(N2CCC(C3COC(=O)N3)CC2)c(-c2nn[nH]n2)c1S(N)(=O)=O (stereo partly drawn) [Example 177, N1-((R)-3-amino-2-hydroxypropyl)-4-(4-(2-oxooxazolidin-4-yl)piperidin-1-yl)-3-(2H-tetrazol-5-yl)benzene-1,2-disulfonamide] | 1.56 | 1.00 | 0.19 | 0.15 | 1.56 | 0.57 | 0.66 | 6.25 | 6.25 | 3.13
NC[C@@H](O)CNS(=O)(=O)c1ccc(N[C@H]2CCC[C@H]2N)c(-c2nn[nH]n2)c1S(N)(=O)=O [Example 178, N1-((R)-3-amino-2-hydroxypropyl)-4-(((1S,2R)-2-aminocyclopentyl)amino)-3-(2H-tetrazol-5-yl)benzene-1,2-disulfonamide] | 25.00 | 4.00 | 101 | 80.1 | 6.25 | 29 | 132 | 6.25 | 1.56 | 6.25
NC[C@@H](O)CNS(=O)(=O)c1ccc(N[C@@H]2CCC[C@H]2N)c(-c2nn[nH]n2)c1S(N)(=O)=O [Example 179, N1-((R)-3-amino-2-hydroxypropyl)-4-(((1R,2R)-2-aminocyclopentyl)amino)-3-(2H-tetrazol-5-yl)benzene-1,2-disulfonamide] | 25.00 | 4.00 | 69.2 | 49.9 | 6.25 | 26.2 | 83.1 | 12.50 | 0.78 | 6.25
NS(=O)(=O)c1c(S(=O)(=O)N[C@@H]2CCNC2)ccc(NCC2CCNCC2)c1-c1nn[nH]n1 [Example 183, (R)-4-((piperidin-4-ylmethyl)amino)-N1-(pyrrolidin-3-yl)-3-(2H-tetrazol-5-yl)benzene-1,2-di sulfonamide] | 3.13 | 2.67 | 12.4 | 5.89 | 1.17 | 6.26 | 69.7 | 2.34 | 1.17 | 1.56
C[C@H](CN)NS(=O)(=O)c1ccc(N2CCC(CCN)CC2)c(-c2nn[nH]n2)c1S(N)(=O)=O [Example 185, (R)-4-(4-(2-aminoethyl)piperidin-1-yl)-N1-(1-aminopropan-2-yl)-3-(2H-tetrazol-5-yl)benzene-1,2-disulfonamide] | 0.78 | 1.00 | 0.6 | 0.04 | 0.78 | 0.33 | 0.71 | 1.56 | 0.78 | 1.56
NCC1CCN(c2ccc(S(=O)(=O)N[C@H](CN)CO)c(S(N)(=O)=O)c2-c2nn[nH]n2)CC1 [Example 186, (R)-N1-(1-amino-3-hydroxypropan-2-yl)-4-(4-(aminomethyl)piperidin-1-yl)-3-(2H-tetrazol-5-yl)benzene-1,2-disulfonamide] | 1.56 | 2.00 | 40.6 | 2.85 | 0.78 | 18.7 | 68.7 | 1.56 | 3.13 | 1.56
